Assay results taken from the NIST ThermoML archive (doi:10.1016/j.jct.2010.04.003).
± gives the expanded uncertainty stated by the source.

Settings: 101.33 kPa, Liquid, Buoyancy - hydrostatic balance with magnetic suspension - one sinker

## CN(C)P(=O)(N(C)C)N(C)C [tris(dimethylamino)phosphine oxide]
288.15 K
  mass density: 1028.54 ± 0.33 kg/m3
293.15 K
  mass density: 1024.33 ± 0.33 kg/m3
298.15 K
  mass density: 1020.03 ± 0.33 kg/m3
303.15 K
  mass density: 1015.86 ± 0.32 kg/m3
308.15 K
  mass density: 1011.61 ± 0.32 kg/m3
